Measured values published in patent US20090288225A1, “Novel Aromatic Acyltransferase Genes” (Aomori Prefecture, priority 2006, published 2009).

Experiments:
[1] = system: 35-70% ammonium sulfate precipitate fraction of the protein extracted from butterfly pea petals; test: Examination of substrates: acyltransferase activity with butterfly pea petal protein fraction; format: biochemical, butterfly pea (Clitoria ternatea); conditions: for acyltransferase activity as acyl acceptor: acyl donor 1-O-p-coumaroyl-β-D-glucose; for acyltransferase activity as acyl donor: acyl receptor preternatin C5, specific activity order: sinapoyl, feruloyl, p-coumaroyl, caffeoyl glucose (highest first)
Protocol: (§1) A reaction solution (20 μl) containing 100 mM phosphate buffer (pH 6.5), 0.4 mM anthocyanin (4 μl), 0.5 mM 1-O-acyl-β-D-glucose (4 μl) and an enzyme solution (8 μl) was reacted at 30° C. The reaction was terminated by adding 4 μl of 1M aqueous hydrochloric acid solution. After addition of 24 μl of 5% acetonitrile containing 0.05 M TFA, the reaction solution was filtered with Millex-LH filter (Millipore) and then analyzed by HPLC by feeding a 10 μl aliquot.
(§2) HPLC analysis of anthocyanin acyltransferase reaction products were performed with Develosil ODS-UG-5 column (3.0 i.d.×250 mm; Nomura Chemical) at a column temperature of 35° C. Against an initial solvent that was 0.05 M trifluoroacetate (TFA)-containing 5% acetonitrile (MeCN) aqueous solution, 0.05 M TFA-containing 40% MeCN was added with a linear concentration gradient from 14 to 86% (20 min) and the reaction products were eluted at a flow rate of 0.5 ml/min. The reaction products were detected with PDA and their molecular weights were confirmed by LC-MS/MS.
In order to detect an enzyme activity of transferring an aromatic acyl group to the sugar residue of flavonoids using 1-O-acyl-β-D-glucose as an acyl donor, various types of 1-O-acyl-β-D-glucose and anthocyanin were examined. Briefly, enzyme activities were measured using 35-70% ammonium sulfate precipitate fraction of the protein extracted from butterfly pea petals as an enzyme solution, preternatin C5 as an acyl receptor, and various 1-O-acyl-β-D-glucoses as an acyl donor. […] Specific activity was higher in the following order: 1-O-sinapoyl-β-D-glucose, 1-O-feruloyl-β-D-glucose, 1-O-p-coumaroyl-β-D-glucose and 1-O-caffeoyl-β-D-glucose. Further, enzyme activities were measured using 1-O-p-coumaroyl-β-D-glucose as an acyl donor and various types of anthocyanin as an acyl acceptor.

[2] = UDP-glucose:hydroxycinnamate 1-O-glucosyltransferase activity of recombinant proteins from E. coli; format: biochemical; conditions: against all four types of hydroxycinnamic acid used
Protocol: The transformed E. coli was shaking-cultured overnight in 3 ml of LB medium containing 50 μg/ml kanamycin and 34 μg/ml chloramphenicol. This culture broth (500 μl) was inoculated into LB medium (50 ml) and shaking-cultured until absorbance at 600 nm reached 0.4. Then, isopropyl-β-D-thiogalactoside (IPTG) was added to give a final concentration of 0.4 mM. The cells were shaking-cultured at 25° C. for 16 hr and then harvested by refrigerated centrifugation (8000 rpm, 4° C., 20 min). CtGT11-4 protein was partially purified from the cells using Ni-NTA mini-column according to the method recommended by the manufacturer. […]
For measuring enzyme activity, a 30 μl reaction solution containing 100 mM potassium phosphate buffer (pH 7.4), 30 pmole of UDP-glucose, 30 pmole of hydroxycinnamic acid and 15 μl of recombinant protein solution was reacted at 30° C. […] The enzyme reaction products were analyzed by reversed-phase high performance liquid chromatography (Shiseido NanoSpace system) using Develosil C30-UG-5 (1.5 i.d.×250 mm). […] The eluted materials were detected with a PDA detector, and the resultant data were analyzed to thereby quantitatively determine 1-O-acyl-β-D-glucose. […]
LeGT13-20 and LeGT13-30 genes were expressed using pET30Ek/LIC System (Novagen). […] Resultant several clones were analyzed to confirm the nucleotide sequences thereof, and then transformed into E. coli BL21-CodonPlus(DE3)-RP. […]

[3] = Enzyme activity of recombinant CtSCPL1 protein expressed in Baculovirus-Sf9 insect cells; format: biochemical, butterfly pea (Clitoria ternatea)
Protocol: as §1, §2
Sf9 cells monolayer-cultured in complete Grace medium or Sf900II-SFM serum free medium (Gibco) in 6-well plates (3×10^6 cells) were infected with the recombinant virus at a multiplicity of infection (MOI) of 5-10. […] Enzyme reaction was performed using the thus concentrated protein solution, and the reaction product was analyzed by HPLC and LC-MS. […]

Row | Molecule | acyltransferase activity as acyl acceptor [1] | acyltransferase activity as acyl donor [1] | further results
1 | O=C(O)CC(=O)OCC1OC(Oc2cc3c(O)cc(O)cc3[o+]c2-c2cc(O)c(O)c(OC3OC(CO)C(O)C(O)C3O)c2)C(O)C(O)C1O (stereo not shown) [delphinidin 3-(6-malonyl)glucoside-3′-glucoside] | acyltransferase activity was detected | – | –
2 | O=C(/C=C/c1ccc(O)c(O)c1)O[C@@H]1O[C@H](CO)[C@@H](O)[C@H](O)[C@H]1O [1-O-caffeoyl-β-D-glucose] | – | acyltransferase activity was detected | –
3 | O=C(/C=C/c1ccc(O)cc1)O[C@@H]1O[C@H](CO)[C@@H](O)[C@H](O)[C@H]1O [1-O-p-coumaroyl-β-D-glucose] | – | acyltransferase activity was detected | –
4 | O=C(O)CC(=O)OC[C@H]1O[C@@H](Oc2cc3c(O)cc(O)cc3[o+]c2-c2cc(O[C@@H]3O[C@H](CO)[C@@H](O)[C@H](O)[C@H]3O)c(O)c(O[C@@H]3O[C@H](CO)[C@@H](O)[C@H](O)[C@H]3O)c2)[C@H](O)[C@@H](O)[C@@H]1O [ternatin C5, Delphinidin 3-(6-malonyl)glucoside 3′,5′-diglucoside] | acyltransferase activity was detected | – | –
5 | COc1cc(/C=C/C(=O)O[C@@H]2O[C@H](CO)[C@@H](O)[C@H](O)[C@H]2O)cc(OC)c1O [1-O-sinapoyl-β-D-glucose] | – | acyltransferase activity was detected | –
6 | COc1cc(/C=C/C(=O)O[C@@H]2O[C@H](CO)[C@@H](O)[C@H](O)[C@H]2O)ccc1O [1-O-feruloyl-β-D-glucose] | – | acyltransferase activity was detected | –
7 | OC[C@H]1O[C@@H](Oc2cc3c(O)cc(O)cc3[o+]c2-c2cc(O[C@@H]3O[C@H](CO)[C@@H](O)[C@H](O)[C@H]3O)c(O)c(O[C@@H]3O[C@H](CO)[C@@H](O)[C@H](O)[C@H]3O)c2)[C@H](O)[C@@H](O)[C@@H]1O [preternatin C5, delphinidin 3,3′,5′-triglucoside] | acyltransferase activity was detected | – | –
8 | LeGT13-20: lobelia 1-O-acyl-β-D-glucose synthase, 486 amino acid residues, SEQ ID NO: 16 (protein, Lobelia erinus cv.Riviera Midnight Blue; Amino acid sequence of UDP-glucose hydroxycinnamic acid 1-O-glucosyltransferase) MGSLQGTTTVENLTHVFLVSFPGQGHVNPLLRLGKILAFKGLLVTFSAPEMVGEIIKGANKYISDDELTPIGDGMIRFEFFSDGLGNTKEDNSLRGNMDLYMPQLATFAKKSLSEILIKHEKHGRPVACLINNPFIPWISELAEEFNIPSAVLWVQSCASFSAYYHYHHGLVPFPTENEPERDVQLPNMPLLKYDEIPGFLLPSSPYGFLRRAILGQFKLLSKPICILVESFQELENDCINYLSTLCPIKPIGPLFSNPSVRNGSSIRGDFMKVEDCIDWLNTRADSSVVYVSFGSIVYVKQEQITEIARGLADSGLSFLWAFKQPGIDMGLTPPSLPDGFLEEVKGRGKVVEWCSQEAVLSHPAVSCFMSHCGWNSTMEALSSGVPVAAFPIWGDQVTDAKFLVDEFKVGIRMCRGEADINKKVVTREEIARCLLAATSGPKAEELKRNALKWKKAAADSVGAGGSSDRNLEEFVGSIRKDVVGH | – | – | glucosyltransferase activity [2]: glucosyltransferase activity was confirmed
9 | CtSCPL1: butterfly pea SCPL acyltransferase, 487 amino acid residues, SEQ ID NO: 2 (protein, Clitoria ternatea cv. Double Blue; Amino acid sequence of 1-O-acyl-Beta-D-glucose anthocyanin-O-acyltansferase) MAAFSSTHSACGILLLPLVVSSLICFQLASCGTIVEFLPGFDGPLPFVLETGYVGVGEGEDVQVFYYFVESENNPNEDPLMLWLTGGPGCSAFSGLALEIGPLIFKREEYNGGLPNLILRPHSWTKVSSIIFVDLPVSTGFTYARTDAAAQRSDWTLVHHAHEFLRKWLIDHPKFLQNELYIGGDSYSGIPIPVIVQEISQENEKGIQPWINLQGYILGNAITTRREKGYSIPFAHGMALISDELYESLRKNCKGEYLNVDPENVLCSRDIDSYSKATSRISFAHILERTCNSGDIKTSLRRSTIQRHHTKKFLNTNLKLPPLTCRTYANFQCGLWANDDNVRSALHIHKGSIGEWHRCSIRLPFTSDIPNSFEYHVNLSRKGYYRSLIYSGDHDMMVPFLGTQAWIRSLNYSIVDDWRPWNTNGQVAGYTRTYSNRMTYATIKGGGHTAPEFKPEECFAMYSRWISKRPLYENNTMSSYTNLASIL | – | – | 3′AT activity ([3]; substrates preternatin C5 or delphinidin 3-(6-malonyl)glucoside-3′-glucoside and 1-O-feruloyl-β-D-glucose): 3′AT activity was confirmed; 3′AT activity ([3]; substrates ternatin C5 and 1-O-p-coumaroyl-β-D-glucose): 3′AT activity was also recognized
